Where a name gives a salt, the structure may show the parent alone.

The test system of one test is NF-kB activation induced by TNFα. The test can be described thus: TNFα Luciferase assay: inhibition of NF-kB activation induced by TNFα in HEK293/NF-kB luciferase cells. Format: cell-based. The note with it: 25 ng/ml of TNF-α for four hours, quadruplicate, read-out: IC50, concentration at which NF-kB activation was reduced by 50%. As to the method: Determination of Inhibition of NF-kB Activation Induced by TNFα . . . In Vitro Assay
The ability of a compound disclosed herein to inhibit NFkB activation induced by TNFα was determined using the TNFα Luciferase assay. The HEK293/NF-kB luciferase cell line was obtained by cotransfection of pNFkB-luc vector with pHyg (Panomics, CA, USA) followed by hygromycin selection. HEK293/NFkB Luciferase cells were grown in DMEM medium supplemented with 10% fetal bovine serum, 100 U/ml of penicillin, 100 ng/ml of streptomycin/Fungizone, and 100 μg/ml of hygromycin B as the selecting agent. HEK293 NFkB Luciferase cells were grown in T75 flasks (Nunc™ Cell Culture Treated EasYFlasks™) in a cell culture incubator at 37° C. and 5% CO2.
Confluent T75 cell culture flasks (approximately 8-10 million of cells per flask) were washed with 10 ml of sterile PBS (without calcium and magnesium) under a biosafety cabinet. After aspiration of the PBS with a sterile glass pipette, the layer of cells (for each T75 flask) was covered with 1 ml of TrypLE™ Express without phenol red (Gibco) at room temperature. After one minute of incubation, HEK293 were mechanically resuspended in the TrypLE by tapping the side of the flask. The cells were then resuspended with 10 ml of pre-warmed complete culture medium and transferred to a conical tube. Cells were centrifuged for 5 minutes at 4000 rpm (1000 g) at room temperature. The cellular pellet was resuspended with 24 ml of pre-warmed cell culture media and […] of cell suspension (approximately 80,000 cells per well) was plated per well in 96-well cell culture plates (Costar #3599, Corning, N.Y., USA) using a multichannel pipette and reversed pipetting to prevent air bubble formation. After plating, the cells were maintained overnight in the cell culture incubator before being treated. For each 96 well cell culture plate, 8 wells were used as “control wells” (only culture medium added) and to 8 wells only TNFα was added. The NF-kB Luciferase reporter cell line was challenged with 25 ng/ml of TNF-α for four hours in the presence and absence (control conditions) of a dose range of the different compounds to be tested. For each compound, a dose range of concentrations was tested in quadruplicate and used to determine an IC50.
Luciferase activity was monitored using the Luc-Screen® Extended-Glow Luciferase Reporter Gene Assay System by chemoluminescence according to the instruction of the manufacturer (Invitrogen) and a BioTek Synergy HT plate reader (BioTek Instruments, VT, USA).
As for “mixture of 2-((S)-1-oxo-1-((S)-6-(pyridin-3-yl)-5,6-dihydropyridin-1(2H)-yl)butan-2-yl)isoindoline-1,3-dione and 2-((R)-1-oxo-1-((R)-6-(pyridin-3-yl)-5,6-dihydropyridin-1(2H)-yl)butan-2-yl)isoindoline-1,3-dione [Compound 5]”, the IC50 turned out to be 925000 nM.

The test is the same for the next values; noted with them: Homo sapiens, 4 h, 25 ng/ml of TNF-α for four hours, quadruplicate, read-out: IC50, concentration at which NF-kB activation was reduced by 50%.
`NCCCC(=O)Nc1cccc(C(=O)N[C@@H](Cc2ccccc2)C(=O)N2CC=CCC2c2cccnc2)c1` (stereo partly drawn) [Compound 55, 3-(4-aminobutanamido)-N-((2S)-1-oxo-3-phenyl-1-(6-(pyridin-3-yl)-5,6-dihydropyridin-1(2H)-yl)propan-2-yl)benzamide hydrochloride]: the IC50 amounted to 170 nM.

As for `COc1cc(OC)cc(C(=O)N[C@H](Cc2ccccc2)C(=O)N2CC=CCC2c2cccnc2)c1` (stereo partly drawn) [Compound 28, 3,5-dimethoxy-N-((2R)-1-oxo-3-phenyl-1-(6-(pyridin-3-yl)-5,6-dihydropyridin-1(2H)-yl)propan-2-yl)benzamide], the IC50 was found to be 6500 nM.

Regarding `CC(C)[C@@H](C(=O)N1CC=CC[C@H]1c1cccnc1)N1C(=O)c2ccccc2C1=O` (single isomer, unassigned) [Compound 3], the IC50 amounted to 750000 nM.

`CC[C@@H](C)C(=O)Nc1cccc(C(=O)N[C@@H](Cc2ccccc2)C(=O)N2CC=CCC2c2cccnc2)c1` (stereo partly drawn) [Compound 58, 3-((R)-2-methylbutanamido)-N-((2S)-1-oxo-3-phenyl-1-(6-(pyridin-3-yl)-5,6-dihydropyridin-1(2H)-yl)propan-2-yl)benzamide]: the IC50 was 185 nM.

Consider `CCCC(=O)Nc1cccc(C(=O)NC(Cc2ccccc2)C(=O)N2CC=CCC2c2cc3ccccc3nc2Cl)c1` (centres unmarked) [Compound 67, 3-butyramido-N-(1-(2-(2-chloroquinolin-3-yl)-3,6-dihydropyridin-1(2H)-yl)-1-oxo-3-phenylpropan-2-yl)benzamide], for which the IC50 is 1700 nM.

Take `O=C(N[C@@H](Cc1ccccc1)C(=O)N1CC=CCC1c1cccnc1)c1cccnc1` (stereo partly drawn) [Compound 51, N-((2S)-1-oxo-3-phenyl-1-(6-(pyridin-3-yl)-5,6-dihydropyridin-1(2H)-yl)propan-2-yl)nicotinamide]: the IC50 came to 114 nM.

As to `C[C@H](NC(=O)c1ccc(Cl)cc1)C(=O)N1CC=CCC1c1cccnc1` (stereo partly drawn) [Compound 14, 4-chloro-N-((2S)-1-oxo-1-(6-(pyridin-3-yl)-5,6-dihydropyridin-1(2H)-yl)propan-2-yl)benzamide], the IC50 was determined as 170000 nM.

With `C[C@H](NC(=O)c1ccc([N+](=O)[O-])cc1)C(=O)N1CC=CCC1c1cccnc1` (stereo partly drawn) [Compound 13, 4-nitro-N-((2S)-1-oxo-1-(6-(pyridin-3-yl)-5,6-dihydropyridin-1(2H)-yl)propan-2-yl)benzamide], the IC50 turned out to be 276000 nM.

For `COc1cccc(C(=O)NC(Cc2ccccc2)C(=O)N2CC=CCC2c2cccnc2)c1` (centres unmarked) [Compound 16, 3-methoxy-N-(1-oxo-3-phenyl-1-(6-(pyridin-3-yl)-5,6-dihydropyridin-1 (2H)-yl)propan-2-yl)benzamide], the IC50 amounted to 2000 nM.

Take `CC(=O)Nc1cccc(C(=O)NC(Cc2ccccc2)C(=O)N2CC=CCC2c2cccnc2)c1` (centres unmarked) [Compound 39, 3-acetamido-N-(1-oxo-3-phenyl-1-(6-(pyridin-3-yl)-5,6-dihydropyridin-1(2H)-yl)propan-2-yl)benzamide]: the IC50 was determined as 210 nM.

On to `COc1cccc(C(=O)N[C@@H](C)C(=O)N2CC=CCC2c2cccnc2)c1` (stereo partly drawn) [Compound 10, 3-methoxy-N-((2S)-1-oxo-1-(6-(pyridin-3-yl)-5,6-dihydropyridin-1(2H)-yl)propan-2-yl)benzamide], for which the IC50 came out at 125000 nM.

With `O=C(N[C@@H](Cc1ccccc1)C(=O)N1CC=CCC1c1cccnc1)c1cccc(NC(=O)C2CC2)c1` (stereo partly drawn) [Compound 44, 3-(cyclopropanecarboxamido)-N-((2S)-1-oxo-3-phenyl-1-(6-(pyridin-3-yl)-5,6-dihydropyridin-1(2H)-yl)propan-2-yl)benzamide], the IC50 came to 80.2 nM.

For the compound `O=C(CCCC[C@@H]1SC[C@@H]2NC(=O)N[C@@H]21)Nc1cccc(C(=O)N[C@@H](Cc2ccccc2)C(=O)N2CC=CCC2c2cccnc2)c1` (stereo partly drawn) [Compound 41, 3-{5-[(3aS,4S,6aR)-2-oxo-hexahydro-1H-thieno[3,4-d]imidazol-4-yl]pentanamido}-N-[(2S)-1-oxo-3-phenyl-1-{1,2,3,6-tetrahydro-[2,3′-bipyridin]-1-yl}propan-2-yl]benzamide], the IC50 was found to be 250 nM.

Turning to `COc1cccc(C(=O)N[C@@H](Cc2ccccc2)C(=O)N2CC=CCC2c2cccnc2)c1` (stereo partly drawn) [Compound 35, 3-methoxy-N-((2S)-1-oxo-3-phenyl-1-(6-(pyridin-3-yl)-5,6-dihydropyridin-1(2H)-yl)propan-2-yl)benzamide], the IC50 is 1600 nM.

Regarding `COc1ccc(Cl)c(C(=O)N[C@H](Cc2ccccc2)C(=O)N2CC=CCC2c2cccnc2)c1` (stereo partly drawn) [Compound 27, 2-chloro-5-methoxy-N-((2R)-1-oxo-3-phenyl-1-(6-(pyridin-3-yl)-5,6-dihydropyridin-1(2H)-yl)propan-2-yl)benzamide], the IC50 turned out to be 4000 nM.

As for `O=C(N[C@@H](Cc1ccccc1)C(=O)N1CC=CCC1c1cccnc1)c1cccc(NC(=O)C2CCCC2)c1` (stereo partly drawn) [Compound 46, 3-(cyclopentanecarboxamido)-N-((2S)-1-oxo-3-phenyl-1-(6-(pyridin-3-yl)-5,6-dihydropyridin-1(2H)-yl)propan-2-yl)benzamide], the IC50 is 58.5 nM.

For `CCCC(=O)Nc1cccc(C(=O)N[C@@H](Cc2ccc3ccccc3c2)C(=O)N2CC=CCC2c2cccnc2)c1` (stereo partly drawn) [Compound 65, 3-butyramido-N-((2S)-3-(naphthalen-2-yl)-1-oxo-1-(6-(pyridin-3-yl)-5,6-dihydropyridin-1(2H)-yl)propan-2-yl)benzamide], the IC50 was found to be 704 nM.

`CCCC(=O)Nc1ccccc1C(=O)N[C@@H](Cc1ccccc1)C(=O)N1CC=CCC1c1cccnc1` (stereo partly drawn) [Compound 47, 2-butyramido-N-((2S)-1-oxo-3-phenyl-1-(6-(pyridin-3-yl)-5,6-dihydropyridin-1(2H)-yl)propan-2-yl)benzamide]: the IC50 is 159 nM.

Turning to `COc1cc(C(=O)N[C@H](Cc2ccccc2)C(=O)N2CC=CCC2c2cccnc2)ccc1F` (stereo partly drawn) [Compound 31, 4-fluoro-3-methoxy-N-((2R)-1-oxo-3-phenyl-1-(6-(pyridin-3-yl)-5,6-dihydropyridin-1(2H)-yl)propan-2-yl)benzamide], the IC50 turned out to be 1700 nM.

For the compound `COc1ccccc1C(=O)N[C@H](Cc1ccccc1)C(=O)N1CC=CCC1c1cccnc1` (stereo partly drawn) [Compound 32, 2-methoxy-N-((2R)-1-oxo-3-phenyl-1-(6-(pyridin-3-yl)-5,6-dihydropyridin-1(2H)-yl)propan-2-yl)benzamide], the IC50 was determined as 8600 nM.

In the case of `NCC(=O)Nc1cccc(C(=O)N[C@@H](Cc2ccccc2)C(=O)N2CC=CCC2c2cccnc2)c1` (stereo partly drawn) [Compound 53, 3-(2-aminoacetamido)-N-((2S)-1-oxo-3-phenyl-1-(6-(pyridin-3-yl)-5,6-dihydropyridin-1(2H)-yl)propan-2-yl)benzamide hydrochloride], the IC50 is 212 nM.

Regarding `CC(C)CC(=O)Nc1cccc(C(=O)N[C@@H](Cc2ccccc2)C(=O)N2CC=CCC2c2cccnc2)c1` (stereo partly drawn) [Compound 42, 3-(3-methylbutanamido)-N-((2S)-1-oxo-3-phenyl-1-(6-(pyridin-3-yl)-5,6-dihydropyridin-1(2H)-yl)propan-2-yl)benzamide], the IC50 stood at 86.9 nM.

As to `CC[C@H](C)C(=O)Nc1cccc(C(=O)N[C@@H](Cc2ccccc2)C(=O)N2CC=CCC2c2cccnc2)c1` (stereo partly drawn) [Compound 57, 3-((S)-2-methylbutanamido)-N-((2S)-1-oxo-3-phenyl-1-(6-(pyridin-3-yl)-5,6-dihydropyridin-1(2H)-yl)propan-2-yl)benzamide], the IC50 was 121 nM.

Turning to `CCOc1cccc(C(=O)NC(Cc2ccccc2)C(=O)N2CC=CCC2c2cccnc2)c1` (centres unmarked) [Compound 20, 3-ethoxy-N-(1-oxo-3-phenyl-1-(6-(pyridin-3-yl)-5,6-dihydropyridin-1(2H)-yl)propan-2-yl)benzamide], the IC50 was 1500 nM.

Turning to `C[C@H](C(=O)N1CC=CCC1c1cccnc1)N1C(=O)c2ccccc2C1=O` (stereo partly drawn) [Compound 17, 2-((2R)-1-oxo-1-(6-(pyridin-3-yl)-5,6-dihydropyridin-1(2H)-yl)propan-2-yl)isoindoline-1,3-dione], the IC50 is 140000 nM.

The record behind these values is US20220081415A1, “Amino Acid Derivatives for the Treatment of Inflammatory Diseases” (The Roskamp Institute, priority 2019, published 2022).
